Article PMC5361079 (Scientific Reports, 2017)
Where two headings read alike, the source gives them in different places.

Assays:
hiPSC-CMs = assay: Intracellular prodrug, cleavage intermediate metabolite and NTP metabolite concentrations in hiPSC-CMs; assay type: in vitro ADME, human; conditions: for Effect of CatA inhibitor on sofosbuvir cleavage intermediate metabolite in hiPSC-CMs: hiPSC-CMs incubated with sofosbuvir; for Intracellular Concentration, NTP Metabolite / Intracellular Concentration, Cleavage Intermediate Metabolite: BLOQ = below 17 pmol/million cells
Protocol: Approximately 18 h before dosing, iCell hiPSC-CMs were switched to iCell cardiomyocyte maintenance media free of Penicillin/Streptomycin. […] […] After the corresponding treatment, cells were washed 2x with 200 μL of ice-cold magnesium- and calcium-free PBS buffer. Cells were then lysed in 100 μL of ice-cold lysis solution (70/30 methanol/water containing 20 mM EDTA and 20 mM EGTA, pH 8) by pipetting up and down 5 times. Plates were sealed and transferred on dry ice for determination of prodrug, cleavage intermediate metabolite, and NTP metabolite concentrations. Intracellular prodrug concentrations were measured using a reversed phase HPLC- high resolution mass spectrometry method. A dimethylhexylamine based ion-pairing HPLC-MS/MS method was used to measure intracellular cleavage intermediate metabolite and NTP metabolite concentrations. Intracellular concentrations (pmol/million cells) of prodrug, cleavage intermediate metabolite, and NTP metabolite were quantitated against calibration standards of the same analytes prepared from control iCell hiPSC-CM lysates.
For prodrug analyses, full scan high resolution mass spectrometry data was collected using an Exactive™ Orbitrap mass spectrometer with an electrospray source operated in the positive ion mode. Prodrug chromatograms were extracted from full scan high resolution mass spectrometry data for the masses indicated in Supplementary Table 5. Absence of endogenous interference(s) was verified by extracting the same ion from full scan high resolution mass spectrometry chromatograms of unspiked control cell lysates. For the cleavage intermediate metabolite and NTP metabolite an electrospray MS/MS method run on a SCIEX API 4000 mass spectrometer with turboV ionspray source was used in negative ion mode monitoring the transitions indicated in Supplementary Table 5. Absence of endogenous interference(s) was verified by monitoring of the same MRM transitions for unspiked control cell lysates. Measured intracellular prodrug, cleavage intermediate metabolite, and NTP metabolite concentrations (in pmol/million cells units) were tabulated (Table 2).

hiPSC-CM syncytia = assay: Spontaneous FP rate and IMP amplitude/beating rate in hiPSC-CM syncytia (RTCA CardioECR / RTCA Cardio); assay type: cell-based, human; conditions: for Effect on FP rate / Effect on IMP amplitude: prodrug co-administered with 0.3 μM amiodarone, steady state (4 h), spontaneously beating hiPSC-CM syncytia
Protocol: hiPSC-CMs (iCells®) from Cellular Dynamics International (CDI, Madison, WI, USA) were seeded onto 48-well CardioECR or 96-well Cardio E-Plates® (ACEA Biosciences Inc., San Diego, CA, USA) coated with 10 μg/mL fibronectin (Sigma Aldrich, Catalog# F1141) at 30,000 cells/well, following manufacturer’s recommendations. Cells were maintained in culture (37 °C, 5% CO2) for a period of 14 days with iCell Maintenance® media (CDI, Madison, WI, USA) exchanged every 2–3 days. Compound addition was only performed on or after Day 14 following cell seeding.
Compound stock solutions were prepared in 100% DMSO or H2O. On the day of compound addition, the media was exchanged with fresh iCell Maintenance® media and allowed to equilibrate for at least 3 h in the incubator. The plates were read on an xCELLigence® RTCA CardioECR or RTCA Cardio (ACEA Biosciences Inc., San Diego, CA, USA). Control pre-reads to establish a baseline were recorded for at least 45 minutes (4 reads at 15-min intervals) prior to compound addition. The compound stock solutions were diluted into iCell Maintenance® media and quickly added to the plate. The plate was continuously monitored for at least 18 h following compound addition. IMP data were sampled at 12 ms (83 Hz), while FP rate data were collected at 0.1 ms (10 KHz). Attachment, growth and viability of syncytia were monitored by means of the baseline IMP signal, as previously described. IMP and FP signals were only interpreted if the baseline IMP was maintained throughout the measurement period (usually ≤18 hrs) at ≥70% of the value before test compound application (pre-read value).

Cav1.2 = target: T1, Cav1.2 (Homo sapiens, UniProt Q13936); assay: Ca2+ influx in Cav1.2/HEK-293 cells (FDSS); assay type: cell-based; conditions: for IC50: Cav1.2/HEK-293, compound alone
T1 construct: expressed in transfected cells
T1 sequence (Q13936 whole entry): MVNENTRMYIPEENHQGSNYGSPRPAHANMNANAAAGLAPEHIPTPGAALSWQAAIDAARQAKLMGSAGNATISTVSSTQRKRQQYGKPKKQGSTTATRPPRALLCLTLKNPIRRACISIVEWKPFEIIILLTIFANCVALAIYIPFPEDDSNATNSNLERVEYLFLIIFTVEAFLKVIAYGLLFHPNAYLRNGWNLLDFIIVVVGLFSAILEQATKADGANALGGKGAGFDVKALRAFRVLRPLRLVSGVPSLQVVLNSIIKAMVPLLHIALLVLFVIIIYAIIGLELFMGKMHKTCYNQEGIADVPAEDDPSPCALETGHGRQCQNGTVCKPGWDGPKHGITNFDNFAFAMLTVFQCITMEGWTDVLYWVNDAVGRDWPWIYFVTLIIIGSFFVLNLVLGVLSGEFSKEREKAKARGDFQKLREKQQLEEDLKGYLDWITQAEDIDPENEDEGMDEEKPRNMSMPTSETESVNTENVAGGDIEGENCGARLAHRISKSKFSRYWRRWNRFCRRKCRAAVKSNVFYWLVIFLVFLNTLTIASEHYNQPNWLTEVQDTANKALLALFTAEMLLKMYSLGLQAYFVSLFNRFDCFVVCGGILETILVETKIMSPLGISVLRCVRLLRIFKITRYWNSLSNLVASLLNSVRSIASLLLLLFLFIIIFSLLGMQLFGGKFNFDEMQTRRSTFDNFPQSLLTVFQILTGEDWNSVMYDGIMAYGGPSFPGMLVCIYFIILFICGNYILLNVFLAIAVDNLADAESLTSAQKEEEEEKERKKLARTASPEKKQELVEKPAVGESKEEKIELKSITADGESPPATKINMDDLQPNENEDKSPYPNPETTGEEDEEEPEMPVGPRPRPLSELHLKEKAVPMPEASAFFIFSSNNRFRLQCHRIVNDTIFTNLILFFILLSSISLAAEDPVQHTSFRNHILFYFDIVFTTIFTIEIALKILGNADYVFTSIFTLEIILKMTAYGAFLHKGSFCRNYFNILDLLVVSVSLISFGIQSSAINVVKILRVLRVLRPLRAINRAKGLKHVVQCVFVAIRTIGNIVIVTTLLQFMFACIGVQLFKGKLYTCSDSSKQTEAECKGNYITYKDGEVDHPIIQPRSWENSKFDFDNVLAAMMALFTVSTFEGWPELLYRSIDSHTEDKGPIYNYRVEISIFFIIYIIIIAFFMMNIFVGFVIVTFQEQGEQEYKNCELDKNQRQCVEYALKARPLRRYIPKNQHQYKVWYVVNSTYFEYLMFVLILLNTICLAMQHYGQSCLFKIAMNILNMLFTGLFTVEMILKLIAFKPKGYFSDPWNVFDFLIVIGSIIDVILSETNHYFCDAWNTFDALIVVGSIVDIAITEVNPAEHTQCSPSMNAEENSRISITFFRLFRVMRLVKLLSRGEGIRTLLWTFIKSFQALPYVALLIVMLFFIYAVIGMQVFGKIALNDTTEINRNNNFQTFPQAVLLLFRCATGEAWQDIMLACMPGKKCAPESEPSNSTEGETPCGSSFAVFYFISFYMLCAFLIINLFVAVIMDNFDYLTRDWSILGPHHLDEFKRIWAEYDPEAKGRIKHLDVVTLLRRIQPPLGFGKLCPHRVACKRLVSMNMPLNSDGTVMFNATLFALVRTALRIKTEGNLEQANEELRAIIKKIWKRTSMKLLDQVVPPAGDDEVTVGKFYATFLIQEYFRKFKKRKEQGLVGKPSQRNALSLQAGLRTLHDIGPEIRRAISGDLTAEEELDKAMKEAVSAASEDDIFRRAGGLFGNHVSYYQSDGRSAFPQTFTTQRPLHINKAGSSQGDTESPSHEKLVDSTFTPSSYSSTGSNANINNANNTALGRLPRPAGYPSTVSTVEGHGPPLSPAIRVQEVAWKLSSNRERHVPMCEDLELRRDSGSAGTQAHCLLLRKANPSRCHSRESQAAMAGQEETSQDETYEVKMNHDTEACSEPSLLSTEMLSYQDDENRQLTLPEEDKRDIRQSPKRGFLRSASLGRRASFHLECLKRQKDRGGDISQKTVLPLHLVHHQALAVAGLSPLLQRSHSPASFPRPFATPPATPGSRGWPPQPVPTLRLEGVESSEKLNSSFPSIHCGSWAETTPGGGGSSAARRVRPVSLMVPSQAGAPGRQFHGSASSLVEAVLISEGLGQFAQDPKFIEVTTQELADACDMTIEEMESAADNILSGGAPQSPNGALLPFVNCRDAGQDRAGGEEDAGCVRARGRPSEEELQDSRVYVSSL
T1 sequence (Q08289 whole entry partner): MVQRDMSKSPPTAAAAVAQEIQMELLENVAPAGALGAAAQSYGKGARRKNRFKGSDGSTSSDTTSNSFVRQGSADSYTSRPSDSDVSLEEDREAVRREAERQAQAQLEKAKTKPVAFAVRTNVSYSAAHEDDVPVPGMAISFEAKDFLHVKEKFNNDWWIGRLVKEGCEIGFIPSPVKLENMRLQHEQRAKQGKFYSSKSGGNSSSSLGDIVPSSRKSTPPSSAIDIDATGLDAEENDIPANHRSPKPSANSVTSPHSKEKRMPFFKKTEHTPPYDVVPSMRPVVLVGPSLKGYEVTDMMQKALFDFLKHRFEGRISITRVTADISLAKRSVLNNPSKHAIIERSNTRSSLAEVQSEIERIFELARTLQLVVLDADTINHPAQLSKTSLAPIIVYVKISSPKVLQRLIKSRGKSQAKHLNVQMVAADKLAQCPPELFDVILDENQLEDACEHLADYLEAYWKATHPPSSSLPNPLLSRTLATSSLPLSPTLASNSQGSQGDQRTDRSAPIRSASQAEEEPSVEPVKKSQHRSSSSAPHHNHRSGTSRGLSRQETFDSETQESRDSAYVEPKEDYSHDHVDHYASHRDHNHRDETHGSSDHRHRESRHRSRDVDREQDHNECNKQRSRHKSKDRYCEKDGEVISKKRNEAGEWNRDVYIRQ
T1 sequence (P54289 25-946 partner limits assumed): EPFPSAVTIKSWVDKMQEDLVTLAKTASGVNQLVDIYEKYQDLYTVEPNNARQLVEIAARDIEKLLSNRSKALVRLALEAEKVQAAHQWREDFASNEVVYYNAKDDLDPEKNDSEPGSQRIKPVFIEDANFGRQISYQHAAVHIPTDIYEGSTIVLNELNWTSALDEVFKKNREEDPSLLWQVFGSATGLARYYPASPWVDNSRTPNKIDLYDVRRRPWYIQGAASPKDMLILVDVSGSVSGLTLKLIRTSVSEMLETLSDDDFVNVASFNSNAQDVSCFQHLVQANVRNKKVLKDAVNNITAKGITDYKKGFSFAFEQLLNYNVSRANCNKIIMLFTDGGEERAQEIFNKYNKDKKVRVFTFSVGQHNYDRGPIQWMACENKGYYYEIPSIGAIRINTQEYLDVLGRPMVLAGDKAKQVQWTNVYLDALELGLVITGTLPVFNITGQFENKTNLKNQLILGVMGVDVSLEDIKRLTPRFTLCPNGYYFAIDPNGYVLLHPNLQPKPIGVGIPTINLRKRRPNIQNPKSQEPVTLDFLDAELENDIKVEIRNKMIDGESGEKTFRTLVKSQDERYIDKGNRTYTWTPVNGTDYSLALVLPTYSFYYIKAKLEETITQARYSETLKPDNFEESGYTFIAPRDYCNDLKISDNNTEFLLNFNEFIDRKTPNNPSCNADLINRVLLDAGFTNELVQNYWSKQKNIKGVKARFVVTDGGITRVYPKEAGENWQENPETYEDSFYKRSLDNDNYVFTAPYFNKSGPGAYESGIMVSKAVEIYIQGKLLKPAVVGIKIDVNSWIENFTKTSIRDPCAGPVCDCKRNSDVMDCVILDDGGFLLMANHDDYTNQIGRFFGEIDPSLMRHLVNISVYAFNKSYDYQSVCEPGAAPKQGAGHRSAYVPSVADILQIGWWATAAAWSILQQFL
T1 sequence (P54289 947-1103 partner limits assumed): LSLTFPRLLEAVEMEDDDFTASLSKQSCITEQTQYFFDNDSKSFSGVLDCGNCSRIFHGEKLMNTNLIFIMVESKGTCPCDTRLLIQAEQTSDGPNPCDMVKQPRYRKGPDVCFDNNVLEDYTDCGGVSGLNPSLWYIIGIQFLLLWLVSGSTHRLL
Protocol: The HEK-293 cell line overexpressing Cav1.2 channel proteins was maintained in-house. HEK-293 cells transiently overexpressing Cav1.3 channel proteins were purchased from ChanTest (Charles River Laboratories, Cleveland, OH, USA). The assay was conducted as previously described. Briefly, on experiment day, cells were incubated with Codex ACTOne® dye (Codex Biosolutions, Inc., Gaithersburg, MD, USA) formulated in PPB buffer containing 25 mM potassium (in mM: 127 NaCl, 25 KCl 0.005 CaCl2, 1.7 MgCl2, 10 HEPES, pH = 7.2 with NaOH), or PPB buffer containing 1 mM potassium (in mM: 151 NaCl, 1 KCl 0.005 CaCl2, 1.7 MgCl2, 10 HEPES, pH = 7.2 with NaOH) for 1 h at room temperature, then test compounds were added for another 30-minute incubation at room temperature with a final volume of 100 μL. The Hamamatsu FDSS/μCell imaging platform simultaneously collected Ca^2+ signals from 96-well plates, at a sampling rate of 16 Hz for 20 seconds as baseline, then a trigger buffer (containing in mM: 119 NaCl, 25 KCl, 4 CaCl2, 1.7 MgCl2, 10 HEPES, pH = 7.2 with NaOH) was added using the dispenser of the FDSS/μCell instrument to generate Ca^2+ transient for 40 seconds. The peak amplitude within the latter 40 seconds minus the average amplitude of the first 20 seconds is the final Ca^2+ transient response of each well. […] Relative response of each well was calculated as follows: […]

[1] = hiPSC-CMs, 10 μM prodrug + 0.3 μM amiodarone, 4 Hours
[2] = hiPSC-CMs, 10 μM prodrug + 0.3 μM amiodarone, 30 Min
[3] = hiPSC-CMs, 10 μM prodrug alone, 4 Hours
[4] = hiPSC-CMs, 10 μM prodrug alone, 30 Min
[5] = read-out: IC50, Ca2+ influx inhibition

| Structure (SMILES) | Effect of CatA inhibitor on sofosbuvir cleavage intermediate metabolite in hiPSC-CMs (hiPSC-CMs) | Effect of CatA inhibitor on L-ala,SP prodrug + amiodarone effects (FP rate, IMP amplitude) (hiPSC-CM syncytia; 30 min pre-incubation and continued incubation, Ebel 3 or 10 μM with sofosbuvir or MNI-1, SAR164653 30 μM with 1 μM MNI-1, 0.3 μM amiodarone) | Intracellular Concentration, Prodrug (hiPSC-CMs; [1]) | Intracellular Concentration, NTP Metabolite (hiPSC-CMs; [1]) | Intracellular Concentration, Prodrug (hiPSC-CMs; [2]) | Intracellular Concentration, NTP Metabolite (hiPSC-CMs; [2]) | Intracellular Concentration, Prodrug (hiPSC-CMs; [3]) | Intracellular Concentration, NTP Metabolite (hiPSC-CMs; [3]) | Intracellular Concentration, Prodrug (hiPSC-CMs; [4]) | Intracellular Concentration, NTP Metabolite (hiPSC-CMs; [4]) | IC50 (Cav1.2; [5]) | inhibition at 30 min, 150 µM (Cav1.2; HEK-293 cells overexpressing Cav1.2 channel proteins, pH 7.2, Cav1.2/HEK-293, 150 μM, compound alone, read-out: inhibition at maximal tested concentration) | Effect on FP rate (hiPSC-CM syncytia) | Effect on IMP amplitude (hiPSC-CM syncytia) | Intracellular Concentration, Cleavage Intermediate Metabolite (hiPSC-CMs; [1]) | Intracellular Concentration, Cleavage Intermediate Metabolite (hiPSC-CMs; [2]) | Intracellular Concentration, Cleavage Intermediate Metabolite (hiPSC-CMs; [3]) | Intracellular Concentration, Cleavage Intermediate Metabolite (hiPSC-CMs; [4]) | IC50 (Cav1.2; n = 3 for each test, read-out: IC50 in repeat tests) | Reduction of cleavage intermediate metabolite level compared to sofosbuvir (hiPSC-CMs; hiPSC-CMs, after 4-h incubation) |
| --- | --- | --- | --- | --- | --- | --- | --- | --- | --- | --- | --- | --- | --- | --- | --- | --- | --- | --- | --- | --- |
| CC[C@@H](C)[C@@H](O)[C@H](C)C(=O)[C@H](C)/C=C(\C)C[C@H](C)[C@@H]1OC(=O)[C@H]1CC [Ebel, ebelactone B, reference compound] | transiently inhibited the formation of the sofosbuvir cleavage intermediate metabolite to levels below the limit of quantitation after 30 min incubation | concentration-dependent exacerbation | – | – | – | – | – | – | – | – | – | – | – | – | – | – | – | – | – | – |
| C#C[C@]1(C)[C@@H](O)[C@@H](COP(=O)(N[C@@H](C)C(=O)OC(C)C)Oc2ccccc2)O[C@H]1n1ccc(=O)[nH]c1=O (stereo partly drawn) [MNI-1, isopropyl (2S)-2-[[[(2R,3R,4R,5R)-5-(2,4-dioxopyrimidin-1-yl)-4-ethynyl-3-hydroxy-4-methyl-tetrahydrofuran-2-yl]methoxy-phenoxy-phosphoryl]amino]propanoate] | – | – | 70.5 ± 14.4 pmol/million cells | Detected but BLOQ | 69.9 ± 5.3 pmol/million cells | BLOQ | 69.1 ± 6.8 pmol/million cells | Detected but BLOQ | 75.4 ± 2.3 pmol/million cells | BLOQ | > 150 µM | 21% | Concentration-dependent, steady-state effects | Concentration-dependent, steady-state effects | – | – | – | – | – | – |
| CC(C)OC(=O)[C@H](C)NP(=O)(OC[C@H]1O[C@@H](n2ccc(=O)[nH]c2=O)[C@](C)(Cl)[C@@H]1O)Oc1ccccc1 (stereo partly drawn) [MNI-3, isopropyl (2S)-2-[[[(2R,3R,4R,5R)-4-chloro-5-(2,4-dioxopyrimidin-1-yl)-3-hydroxy-4-methyl-tetrahydrofuran-2-yl]methoxy-phenoxy-phosphoryl]amino]propanoate] | – | – | 94.0 ± 6.0 pmol/million cells | – | 89.8 ± 12.5 pmol/million cells | BLOQ | 106.9 ± 10.1 pmol/million cells | – | 97.3 ± 14.0 pmol/million cells | BLOQ | – | – | Concentration-dependent, steady-state effects | Concentration-dependent, steady-state effects | – | – | – | – | – | – |
| C#C[C@]1(C)[C@@H](O)[C@@H](COP(=O)(N[C@H](C)C(=O)OC(C)C)Oc2ccccc2)O[C@H]1n1ccc(=O)[nH]c1=O (stereo partly drawn) [MNI-4, isopropyl (2R)-2-[[[(2R,3R,4R,5R)-5-(2,4-dioxopyrimidin-1-yl)-4-ethynyl-3-hydroxy-4-methyl-tetrahydrofuran-2-yl]methoxy-phenoxy-phosphoryl]amino]propanoate] | – | – | 78.7 ± 6.4 pmol/million cells | BLOQ | 84.8 ± 12.4 pmol/million cells | BLOQ | 77.4 ± 6.7 pmol/million cells | BLOQ | 75.4 ± 5.1 pmol/million cells | BLOQ | ~36 µM | – | lack of effects | lack of effects | BLOQ | BLOQ | BLOQ | BLOQ | 27 to 45 µM | – |
| CC(C)OC(=O)C(C)NP(=O)(OCC1OC(n2ccc(=O)[nH]c2=O)C(C)(F)C1O)Oc1ccccc1 (stereo not shown) [MNI-5] | – | – | – | – | – | – | 97.1 ± 36.8 pmol/million cells | B LOQ | 53.6 ± 14.2 pmol/million cells | B LOQ | – | – | – | – | – | – | 121.0 ± 6.24 pmol/million cells | B LOQ | – | ~ 80% |
| CC(C)OC(=O)C(C)NP(=O)(OCC1OC(n2ccc(=O)[nH]c2=O)C(C)(F)C1O)Oc1ccccc1 (stereo not shown) [MNI-6] | – | – | – | – | – | – | 65.5 ± 5.8 pmol/million cells | B LOQ | 46.6 ± 3.1 pmol/million cells | B LOQ | – | – | – | – | – | – | B LOQ | B LOQ | – | – |
| COc1cc(C(=O)N[C@@H](CC(=O)O)c2ccccc2C)nn1-c1ccccc1F [SAR164653, reference compound] | decreased, with concentration and time dependence | – | – | – | – | – | – | – | – | – | – | – | – | – | – | – | – | – | – | – |
